The text below walks through data of patent publication US10017509B2, “Macrocylic pyrimidine derivatives” (Janssen Pharmaceutica NV, priority 2014, dated 2018).

The target of experiment [1] is T1, EF2K (Homo sapiens, UniProt O00418).
T1 construct: host or cells: LN-229 cell lysate
T1 sequence (O00418 1-725): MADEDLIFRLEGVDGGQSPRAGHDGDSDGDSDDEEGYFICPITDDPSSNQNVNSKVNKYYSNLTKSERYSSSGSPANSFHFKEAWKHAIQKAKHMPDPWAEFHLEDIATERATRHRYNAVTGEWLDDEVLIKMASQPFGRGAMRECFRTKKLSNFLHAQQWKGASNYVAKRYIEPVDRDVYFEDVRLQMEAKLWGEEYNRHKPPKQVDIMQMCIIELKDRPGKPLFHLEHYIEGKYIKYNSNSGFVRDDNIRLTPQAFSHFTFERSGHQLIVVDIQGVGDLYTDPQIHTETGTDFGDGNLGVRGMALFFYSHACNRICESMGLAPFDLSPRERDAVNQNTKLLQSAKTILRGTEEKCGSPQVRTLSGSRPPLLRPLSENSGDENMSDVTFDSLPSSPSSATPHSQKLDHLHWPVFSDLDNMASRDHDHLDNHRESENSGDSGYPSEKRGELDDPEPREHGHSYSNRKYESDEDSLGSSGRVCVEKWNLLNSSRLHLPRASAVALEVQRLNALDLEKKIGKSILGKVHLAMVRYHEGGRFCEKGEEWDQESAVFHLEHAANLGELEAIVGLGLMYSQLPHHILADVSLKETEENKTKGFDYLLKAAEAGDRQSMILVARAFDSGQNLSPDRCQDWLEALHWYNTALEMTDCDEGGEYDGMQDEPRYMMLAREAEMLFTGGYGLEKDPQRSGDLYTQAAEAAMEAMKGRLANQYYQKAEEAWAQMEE
Briefly: Biochemical EF2K lysate-based kinase assay (AlphaLISA p-eEF2 Thr56). Conditions: pIC50 = -log IC50 (M), read-out: eEF2K_C_alphalisa pIC50 (converted). Put shortly:
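LN-229 glioblastoma lysate supplied both EF2K and eEF2 substrate; compound incubated 15 min at room temperature in pH 6.6 buffer with 10 mM Mg2+ and 10 mM ATP. EDTA-stopped; phospho-eEF2 Thr56 quantified by AlphaLISA sandwich, final read after overnight. Values as pIC50.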
A general note: Alpha assays give light when donor and acceptor beads are brought close together.

The target in experiment [2] is T1, EF2K. Briefly: EF2K cell-based assay (P-EF2 AlphaLISA, 2-deoxyglucose stimulated MCF10A cells). As to conditions: 2.5 mM 2-deoxyglucose stimulated, P-EF2 Thr56, pIC50 = -log IC50 (M), read-out: eEF2K_C_PThr56 pIC50 (converted). Put shortly: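 MCF10A cells, after 24 h culture, treated 1 h with compound then stimulated 4 h with 2.5 mM 2-deoxyglucose to activate AMPK. Lysates in M-PER with protease/phosphatase inhibitors assayed for P-EF2 by AlphaLISA; pIC50 = −log IC50 (M).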

The target in experiment [3] is Vps34 (PIK3C3 lipid kinase) (Homo sapiens, UniProt Q8NEB9). Briefly: Biochemical Vps34 lipid kinase assay (ADP-Glo). Conditions: for remaining activity at 1 µM: 1 h, read-out: VPS34_1microM_% of cntrl; for remaining activity at 1 µM / VPS34_1microM_% of cntrl: single dose 1 μM compound, residual activity compared to control (DMSO); for IC50: serial half-log dilution 10 μM to 0.3 nM, pIC50 = -log IC50 (M). In outline: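 ADP-Glo luminescence assay of PIK3C3 (7.6 nM) with 50 µM substrate and 20 µM ATP (apparent Km) in HEPES pH 7.5, 100 mM NaCl, 3 mM MnCl2, CHAPS, DTT; 60 min, 30 °C. Single dose 1 µM (residual activity vs DMSO) or half-log series 10 µM-0.3 nM giving pIC50.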

Molecules are shown by their SMILES.

Sequence of Vps34 (PIK3C3 lipid kinase) (Q8NEB9 whole entry, species assumed): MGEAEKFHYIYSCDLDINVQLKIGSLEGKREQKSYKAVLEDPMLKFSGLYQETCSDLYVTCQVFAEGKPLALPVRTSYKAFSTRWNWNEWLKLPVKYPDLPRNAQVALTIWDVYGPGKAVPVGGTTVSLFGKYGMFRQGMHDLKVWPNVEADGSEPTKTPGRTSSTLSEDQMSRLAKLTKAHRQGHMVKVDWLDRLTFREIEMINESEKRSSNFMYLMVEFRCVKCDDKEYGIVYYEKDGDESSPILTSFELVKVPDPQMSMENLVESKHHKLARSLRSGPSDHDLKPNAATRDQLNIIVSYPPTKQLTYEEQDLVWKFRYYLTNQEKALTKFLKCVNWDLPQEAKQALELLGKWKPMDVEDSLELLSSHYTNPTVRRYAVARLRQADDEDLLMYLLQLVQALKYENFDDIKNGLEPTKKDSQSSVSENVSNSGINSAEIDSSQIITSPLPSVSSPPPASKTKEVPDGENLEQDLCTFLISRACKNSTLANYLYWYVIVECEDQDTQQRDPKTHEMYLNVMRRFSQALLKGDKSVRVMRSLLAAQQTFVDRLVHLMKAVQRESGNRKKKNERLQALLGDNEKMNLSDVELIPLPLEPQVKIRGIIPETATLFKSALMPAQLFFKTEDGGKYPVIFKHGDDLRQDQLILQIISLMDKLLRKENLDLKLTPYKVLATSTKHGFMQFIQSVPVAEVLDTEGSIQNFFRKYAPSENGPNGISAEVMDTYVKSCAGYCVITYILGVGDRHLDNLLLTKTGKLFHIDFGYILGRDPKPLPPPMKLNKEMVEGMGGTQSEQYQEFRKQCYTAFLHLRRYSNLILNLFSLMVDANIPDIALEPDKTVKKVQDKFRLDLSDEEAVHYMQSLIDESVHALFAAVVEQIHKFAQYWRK

For the compound `CN1CCN(C)c2ccc(cn2)-c2ccnc(n2)Nc2ccc(O)c(c2)CN2CCN(CC2)CC1=O` [Compound 131], the IC50 was 4.57e-07 M on EF2K [1], 7.59e-06 M at EF2K [2] and 1.74e-07 M in experiment [3]. For the same compound, the remaining activity at 1 µM in experiment [3] was found to be 17.3%.
For `CN1CCCN(C)c2ccc(cn2)-c2ccnc(n2)Nc2cccc(c2)CN2CCN(CC1=O)CC2COCCO` (stereo not shown) [Compound 103], the results for the IC50 (on EF2K [1]; on EF2K [2]; in experiment [3]) were 1.95e-07 M, 1.86e-05 M and 6.76e-07 M, respectively. Further, the remaining activity at 1 µM in experiment [3] stood at 28.3%.
For `O=C1CN2CCN(CC2)Cc2cccc(c2)Nc2nccc(n2)-c2ccc(nc2)N2CC(O)CC2CCN1` (single isomer, unassigned) [Compound 89], the IC50 at EF2K [1] is roughly 6.31e-06 M; at EF2K [2], greater than 3.02e-05 M; in experiment [3], 4.68e-08 M. Further, in experiment [3], the remaining activity at 1 µM was 13.6%.
In the case of `CN1CCCCN(C)c2ccc(cn2)-c2ccnc(n2)Nc2cccc(c2)CN2CCN(CC2)CC1=O` [Compound 20], the results for the IC50 (on EF2K [1]; at EF2K [2]; in experiment [3]) were 1.82e-06 M, greater than 3.02e-05 M and 1.62e-07 M, respectively. In experiment [3], the remaining activity at 1 µM was found to be 8.85%.
The like results for `CN1CCN(C)c2ccc(cn2)-c2ccnc(n2)Nc2cccc(c2)CN2CCN(C)C(CC1=O)C2` (stereo not shown) [Compound 73] were, in that order, 1.82e-06 M, greater than 3.02e-05 M, 4.07e-07 M and 19.6%.
On to `CN1CCCN(C)c2ccc(cn2)-c2ccnc(n2)Nc2cccc(c2)CC2(O)CCN(CC2)CC1=O` [Compound 114], for which the IC50 is 4.47e-06 M on EF2K [1] and 2.34e-05 M on EF2K [2]. The remaining activity at 1 µM in experiment [3] is 30.8%.
On to `Cc1cc2cc(c1)Nc1nccc(n1)-c1ccc(nc1)NCCCNC(=O)CN1CCN(CC1)C2` [Compound 7], for which the IC50 is 1.38e-05 M at EF2K [1], greater than 3.02e-05 M on EF2K [2] and 1.58e-07 M in experiment [3]. Moreover, the remaining activity at 1 µM in experiment [3] came to 15.1%.
In the case of `O=C1CN2CCN(CC2)Cc2cccc(c2)Nc2nccc(n2)-c2ccc(nc2)N2CCCC2CN1` (stereo not shown) [Compound 26], the IC50 was 1.48e-05 M on EF2K [1], greater than 3.02e-05 M at EF2K [2] and 1.02e-07 M in experiment [3]. In addition, the VPS34_1microM_% of cntrl in experiment [3] is on record as 5.23 % of cntrl.
For the compound `Cc1c2cccc1Nc1nccc(n1)-c1ccc(nc1)NCCCNC(=O)CN1CCN(CC1)C2` [Compound 19], the IC50 at EF2K [1] was roughly 1.58e-06 M; at EF2K [2], greater than 3.02e-05 M. In experiment [3], the remaining activity at 1 µM came to 87.1%.
Regarding `O=C1CN2CCN(Cc3cccc(c3)Nc3nccc(n3)-c3ccc(nc3)NCCCN1)C(CO)C2` (single isomer, unassigned) [Compound 47], the results for the IC50 (at EF2K [1]; on EF2K [2]; in experiment [3]) were less than 3.02e-08 M, 4.57e-06 M and 8.32e-08 M, respectively. In addition, the VPS34_1microM_% of cntrl in experiment [3] is recorded as 7.88 % of cntrl.
For `CN1CCCN(C)c2ccc(cn2)-c2ccnc(n2)Nc2cccc(c2)CN2CCN(CC1=O)CC2COCCO` (single isomer, unassigned) [Compound 104], the IC50 was 1.78e-05 M at EF2K [1], greater than 3.02e-05 M on EF2K [2] and 3.02e-07 M in experiment [3]. In addition, in experiment [3], the remaining activity at 1 µM stood at 25.1%.
For `CN(C)C(=O)c1ccc2cc1CN1CCN(CC1)CC(=O)NCCCNc1ccc(cn1)-c1ccnc(n1)N2` [Compound 18], the IC50 on EF2K [1] is 1.91e-06 M; at EF2K [2] it was greater than 3.02e-05 M; in experiment [3], 9.12e-07 M. Also, in experiment [3], the remaining activity at 1 µM is 23.4%.
Take `CC1CN2CCN1CC(=O)NCCCNc1ccc(cn1)-c1ccnc(n1)Nc1cccc(c1)C2` (single isomer, unassigned) [Compound 137]: the figures for the IC50 (on EF2K [1]; at EF2K [2]; in experiment [3]) were 1.95e-06 M, greater than 3.02e-05 M and 8.13e-08 M, respectively. Also, the VPS34_1microM_% of cntrl in experiment [3] is given as 8.17 % of cntrl.
As for `O=C1CN2CCN(CC2)S(=O)(=O)c2cccc(c2)Nc2nccc(n2)-c2ccc(nc2)NCCCN1` [Compound 116], the IC50 was 7.76e-06 M on EF2K [1], greater than 3.02e-05 M on EF2K [2] and 4.47e-07 M in experiment [3]. The remaining activity at 1 µM in experiment [3] amounted to 14%.
On to `O=C1NCCCNc2ccc(cn2)-c2ccnc(n2)Nc2cccc(c2)CN2CCN(CC2)C1CO` (stereo not shown) [Compound 65], for which the IC50 at EF2K [1] was 1.66e-07 M; at EF2K [2], 5.62e-06 M; in experiment [3], 3.31e-07 M. Besides, in experiment [3], the remaining activity at 1 µM was determined as 10.8%.
